# ChEMBL document CHEMBL4813919, “Development of programmable gemcitabine-GnRH pro-drugs bearing linker controllable "click" oxime bond tethers and preclinical evaluation against prostate cancer” (Eur J Med Chem, 2021)
# pIC50: −log10 of the molar value. Where a SMILES comes first, the peptide text is derived from it. [ ]: non-standard residue; d: D form. The star is where a group is joined. ξ: configuration not given here. X1 = Nc1ccn(C2OC(COC(=O)CO/N=C/C(=O)*)C(O)C2(F)F)c(=O)n1; X2 = O=C(CO/N=C/C(=O)*)Nc1ccn(C2OC(CO)C(O)C2(F)F)c(=O)n1; X3 = Nc1ccn(C2OC(CO)C(OC(=O)CO/N=C/C(=O)*)C2(F)F)c(=O)n1; ξAla(indol-2-yl) = NC(Cc1cc2ccccc2[nH]1)C(=O)O; pGlu = O=C1CC[CH](C(=O)O)N1
# Experiments:
# [1] = Prodrug conversion in mouse C57BL/6N assessed as gemcitabine release at 10 mg/kg, IP measured after 15 mins by LC-MS/MS analysis; assay type: ADME, organism-based; conditions: in vivo, 0.25 h
# [2] = Drug metabolism in human DU-145 cells assessed as release of gemcitabine at 1 uM measured after 24 hrs by LC-MS/MS method; assay type: ADME, cell-based; conditions: du-145, 24 h
# [3] = Metabolic stability in human liver microsomes assessed as GOXG1-met2 formation at 6.13 uM incubated for 1 hr by LC-MS analysis; assay type: ADME, Microsome
# [4] = Drug uptake in human DU-145 cells assessed as release of gemcitabine at 10 uM measured upto 8 hrs by LC-MS/MS method; assay type: ADME, cell-based; conditions: du-145, 8 h
# [5] = Drug uptake in human DU-145 cells at 10 uM measured upto 8 hrs by LC-MS/MS method; assay type: ADME, cell-based; conditions: du-145, 8 h
# [6] = system: PC-3; assay: Antiproliferative activity against human PC-3 cells measured after 72 hrs by MTT assay; assay type: functional, cell-based; conditions: PC-3, 72 h
# [7] = system: DU-145; assay: Antiproliferative activity against human DU-145 cells measured after 72 hrs by MTT assay; assay type: functional, cell-based; conditions: DU-145, 72 h
# [8] = In vivo agonist activity at GnRH-R in C57BL6/N mouse assessed as release of testosterone in blood at 639.21 ug/kg, ip measured after 2 hrs by LC-MS/MS analysis; assay type: functional; conditions: dose 639.21 µg/kg
# [9] = Prodrug conversion in mouse C57BL/6N assessed as gemcitabine release at 10 mg/kg, IP measured after 30 mins by LC-MS/MS analysis; assay type: ADME, organism-based; conditions: in vivo, 0.5 h
# [10] = Stability in human DU-145 cells at 1 uM measured upto 10 hrs by LC-MS/MS method; assay type: ADME, cell-based; conditions: du-145, 10 h
# [11] = Metabolic stability in mouse liver microsomes assessed as GOXG1-met2 formation at 6.13 uM incubated for 1 hr by LC-MS analysis; assay type: ADME, Microsome
# [12] = Stability in human plasma at 1 ug/ml measured after 4 hrs by LC-MS/MS method; assay type: ADME, cell-free; conditions: at 1 µg/mL
# [13] = Prodrug conversion in mouse C57BL/6N assessed as gemcitabine release at 10 mg/kg, IP measured 1 to 2.5 hrs by LC-MS/MS analysis; assay type: ADME, organism-based; conditions: in vivo, time 1-2.5 hrs
# [14] = molecular target: T1, Gonadotropin-releasing hormone receptor (Homo sapiens, UniProt P30968); assay: Displacement of [125I]-DTrp6-LHRH from human GnRH-R by radioligand binding assay
# T1 sequence (P30968 whole entry): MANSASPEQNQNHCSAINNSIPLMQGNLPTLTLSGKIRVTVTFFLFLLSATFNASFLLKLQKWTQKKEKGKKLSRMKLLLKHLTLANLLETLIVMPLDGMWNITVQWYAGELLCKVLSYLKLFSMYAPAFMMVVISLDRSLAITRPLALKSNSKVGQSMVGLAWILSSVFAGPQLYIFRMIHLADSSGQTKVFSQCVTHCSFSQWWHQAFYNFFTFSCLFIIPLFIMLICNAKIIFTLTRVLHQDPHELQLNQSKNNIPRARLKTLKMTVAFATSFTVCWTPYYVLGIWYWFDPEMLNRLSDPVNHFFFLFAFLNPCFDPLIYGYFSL
# [15] = Drug metabolism in human plasma assessed as release of gemcitabine at 1 ug/ml measured after 4 hrs by LC-MS/MS method; assay type: ADME, cell-free; conditions: dose 1 µg/ml
# [16] = In vivo agonist activity at GnRH-R in C57BL6/N mouse assessed as release of testosterone in blood at 105.2 ug/kg, ip measured after 2 hrs by LC-MS/MS analysis; assay type: functional; conditions: dose 105.2 µg/kg
# [17] = Drug uptake in C57BL/6N mouse blood at 10 mg/kg, IP measured after 30 mins of dosing by LC-MS/MS analysis; assay type: ADME, organism-based; conditions: whole blood, read-out: Drug uptake
# [18] = In vivo agonist activity at GnRH-R in C57BL6/N mouse assessed as release of testosterone in blood at 483.6 ug/kg, ip measured after 2 hrs by LC-MS/MS analysis; assay type: functional; conditions: dose 483.6 µg/kg
Compound,Drug metabolism [1] [ng/mL],Stabilty [2],Drug metabolism [3],Drug uptake [4],Drug uptake [5],pIC50 [6],pIC50 [7],Drug metabolism [9] [ng/mL],Stabilty [10],Drug metabolism [11],Stabilty [12],Drug metabolism [13] [ng/mL],pIC50 [14],Drug metabolism [15],concentration at 0.5 h [17] [ng/mL],Activity [8] [ng/mL],Activity [16] [ng/mL],Activity [18] [ng/mL]
CC(C)CC(NC(=O)C(CCCCNC(=O)/C=N/OCC(=O)OCC1OC(n2ccc(N)nc2=O)C(F)(F)C1O)NC(=O)C(Cc1ccc(O)cc1)NC(=O)C(CO)NC(=O)C(Cc1cc2ccccc2[nH]1)NC(=O)C(Cc1c[nH]cn1)NC(=O)C1CCC(=O)N1)C(=O)NC(CCCNC(=N)N)C(=O)N1CCCC1C(=O)NCC(N)=O (stereo unspecified) ([pGlu]H[ξAla(indol-2-yl)]SYK(X1)LRPG-NH2; configuration not given here),406,Stable,Metabolite_Detected,Active,Active,6.12,6.21,385,Stable,Metabolite_Detected,Stable,600,8.72,Metabolite_Detected,–,40.1,–,–
CC(C)CC(NC(=O)C(CCCCNC(=O)/C=N/OCC(=O)Nc1ccn(C2OC(CO)C(O)C2(F)F)c(=O)n1)NC(=O)C(Cc1ccc(O)cc1)NC(=O)C(CO)NC(=O)C(Cc1cc2ccccc2[nH]1)NC(=O)C(Cc1c[nH]cn1)NC(=O)C1CCC(=O)N1)C(=O)NC(CCCNC(=N)N)C(=O)N1CCCC1C(=O)NCC(N)=O (stereo unspecified) ([pGlu]H[ξAla(indol-2-yl)]SYK(X2)LRPG-NH2; configuration not given here),–,Stable,–,Active,Active,6.08,6.23,–,Stable,–,Stable,–,–,Metabolite_Detected,–,–,–,–
CCNC(=O)[C@@H]1CCCN1C(=O)[C@H](CCCNC(=N)N)NC(=O)[C@H](CC(C)C)NC(=O)[C@@H](CC(C)C)NC(=O)[C@H](Cc1ccc(O)cc1)NC(=O)[C@H](CO)NC(=O)[C@H](Cc1c[nH]c2ccccc12)NC(=O)[C@H](Cc1c[nH]cn1)NC(=O)[C@@H]1CCC(=O)N1 [LEUPROLIDE],–,–,–,–,–,–,–,–,–,–,–,–,–,–,–,–,–,40.9

# Continued by rising pIC50 [6], values first:
Drug metabolism [1] [ng/mL],Stabilty [2],Drug metabolism [3],Drug uptake [4],Drug uptake [5],pIC50 [6],pIC50 [7],Drug metabolism [9] [ng/mL],Stabilty [10],Drug metabolism [11],Stabilty [12],Drug metabolism [13] [ng/mL],pIC50 [14],Drug metabolism [15],concentration at 0.5 h [17] [ng/mL],Compound,Activity [8] [ng/mL],Activity [16] [ng/mL],Activity [18] [ng/mL]
–,Unstable,–,Active,Active,6.17,6.31,–,Unstable,–,Unstable,–,–,Metabolite_Detected,–,CC(C)CC(NC(=O)C(CCCCNC(=O)/C=N/OCC(=O)OC1C(CO)OC(n2ccc(N)nc2=O)C1(F)F)NC(=O)C(Cc1ccc(O)cc1)NC(=O)C(CO)NC(=O)C(Cc1cc2ccccc2[nH]1)NC(=O)C(Cc1c[nH]cn1)NC(=O)C1CCC(=O)N1)C(=O)NC(CCCNC(=N)N)C(=O)N1CCCC1C(=O)NCC(N)=O (stereo unspecified) ([pGlu]H[ξAla(indol-2-yl)]SYK(X3)LRPG-NH2; configuration not given here),–,–,–
–,–,–,–,–,6.26,6.40,–,–,–,–,–,–,–,685,Nc1ccn([C@@H]2O[C@H](CO)[C@@H](O)C2(F)F)c(=O)n1 [GEMCITABINE],–,0.3,–
